Measured values taken from publication PMC9387934, “Randomized single oral dose phase 1 study of safety, tolerability, and pharmacokinetics of Iminosugar UV-4 Hydrochloride (UV-4B) in healthy subjects” (PLoS Neglected Tropical Diseases, 2022).
Structures can show the parent of a compound that is named as a salt.

Tests used:
[1] = 14-day GLP toxicology study in dogs (UV4-COV-0035); assay type: in vivo, dog
Method: Fourteen-day studies were conducted in mice and dogs. In dogs at 2 mg/kg/dose TID (6 mg/kg/day), there were mild decreases in platelets (PLT), increases in aspartate aminotransferase (AST) (up to 2.8 x baseline [BL]); and a decrease in thymus weight with lymphocyte depletion. Therefore, this dose exceeded the NOEL. At the no observed adverse event level (NOAEL) of 10 mg/kg/dose TID (30 mg/kg/day), there was an increase in the occurrence of poorly formed and liquid feces; decrease in PLT count and increase in activated partial thromboplastin time (aPTT) (2.2 x BL); increase in AST (up to 9.7 x BL) and alanine aminotransferase (ALT) (up to 2.9 x BL) with an inverted AST/ALT ratio; and a decrease in […]
lymphocyte depletion (no cellular debris was noted, however). The inverted AST/ALT ratio and lymphocyte depletion were reversible. Thymus weight decrease in females was reversible but thymus weight decreases in males were not. However, because the apparent […]
microscopic thymus findings, thymus weight differences at the recovery necropsy were considered not toxicologically important. […]
ng•h/mL, respectively. Daily exposure at NOAEL [calculated as 3 x AUC(0-8)] is estimated at 163,305 ng•h/mL. […]
Daily exposure [calculated as 3 x AUC(0-8)] is estimated at 32,820 ng•h/mL. […]

[2] = 14-day GLP toxicology study in mice (UV4-COV-036); conditions: Crl:CD1(ICR), mouse, in vivo, 300 mg/kg/day, read-out: Daily exposure at NOAEL [3 x AUC(0-8)]
Method: Fourteen-day studies were conducted in mice and dogs. […]
The inverted AST/ALT ratio […]
and lymphocyte depletion were reversible. Thymus weight decrease in females was reversible but thymus weight decreases in males were not. However, because the apparent […]
microscopic thymus findings, thymus weight differences at the recovery necropsy were considered not toxicologically important. In mice at 25 mg/kg/dose (75 mg/kg/day) there were decreased thymus weights (males), follicular epithelium vacuolation in the thyroid, and lymphoid depletion of the thymus (males). All findings were reversible but a NOEL was not present at this dose level. At the no NOAEL of 300 mg/kg/day, there were clinical hematology, chemistry, and anatomic pathology findings similar to those observed in the dogs. All findings were reversible.
Based on these observations, the NOAEL for UV-4B following 14 days of TID administration in mice is considered to be 300 mg/kg/day. This dose level corresponded to Day 14 mean Cmax […]
ng•h/mL, respectively. Daily exposure at NOAEL [calculated as 3 x AUC(0-8)] is estimated at 163,305 ng•h/mL. In dogs, the NOAEL following 14 days of TID administration is considered to be 30 mg/kg/day. At the end of the dosing phase, this dose level corresponded to average […]
Daily exposure [calculated as 3 x AUC(0-8)] is estimated at 32,820 ng•h/mL.
This material is the property of the Unither Virology. […]

[3] = in vitro; ref Investigator’s Brochure (IB); cited from earlier work
[4] = Reproductive toxicity upper limit study in rabbits, 13 days; assay type: in vivo, rabbit; conditions: 50 mg/kg/day
Method: 7. Reproductive toxicity:
UV-4B has been evaluated for developmental and reproductive toxicity in fertility and early embryonic development in rats, embryo-fetal development in rats and rabbits, and pre- and postnatal development in rats. In male and female rats given UV-4B at 8, 20, and 50 mg/kg/day before mating and continuing through Gestation Day 13, a […]
observed at 50 mg/kg/day. […]
count but following a 21-week treatment-free period there was complete recovery in pregnancy and fertility indices However, decrease in testicular weight, sperm motility […]
identify the upper limit of reproductive toxicity, a dose of 50 mg/kg/day for 12 […]
In a study designed to identify the upper limit of reproductive toxicity, a dose of 50 […]
rabbit offspring. The rat and rabbit doses are equivalent to 486 and 966 mg/day, […]
In summary, findings that have been identified in the UV-4B toxicology studies so far include effects on the GI tract (including ulcers/erosions), lymphocytes and lymphoid tissue, reduction in PLT count, and increases in transaminases (AST>ALT). Findings were generally consistent across mouse, dog, and rat, apart from the isolated finding of swollen paws/legs and perioral appearance and red skin which was seen only in the rat. […]

[5] = cited from earlier work
[6] = rat, cited from earlier work
CYP2A6 = system: CYP2A6; set-up: method as in Investigator’s Brochure (IB); conditions: in vitro; ref Investigator’s Brochure (IB); cited from earlier work

Structure (SMILES)	AUC(0-t) ([1]; both sexes, dog, in vivo, 30 mg/kg/day, dogs, at NOAEL 30 mg/kg/day, read-out: Daily exposure [3 x AUC(0-8)]) [ng·h/mL]	HED of the lowest dose tested in dogs ([1]; from 2 mg/kg TID) [mg TID]	AUC(0-t) [2] [ng·h/mL]	Mutagenicity, Ames bacterial reverse mutation (two assays) [3]	Human equivalent of the rabbit dose [4] [mg/day]	Vacuoles in kidney (F) ([5]; rat, 25 TID mg/kg)	Swollen paws/legs and perioral appearance and red skin, paws and/or feet ([5]; rat, 60 TID mg/kg, second symbol (later day))	Decreased lymphocytes in mesenteric lymph node (F) ([5]; rat, 60 TID mg/kg)	Possible histamine-like in-life clinical signs ([5]; rats, 60 mg/kg/dose TID, Day 1 or Day 2, transient, ref Investigator’s Brochure (IB))	No observed effect level (NOEL) ([5]; rats, TID for seven days, lowest dose exceeded the NOEL, ref Investigator’s Brochure (IB)) [mg/kg/dose]	Time to appearance of histamine-like signs after treatment ([5]; rats, first or second daily dose of 60 mg/kg/dose (TID), ref Investigator’s Brochure (IB)) [min]	Finding at 25 mg/kg/dose (TID) ([5]; rats, seven days, ref Investigator’s Brochure (IB))	Dose with increased WBC and lymphocyte count ([6]; printed men)	Dose with swollen paws/legs and perioral appearance and red skin, paws, and/or feet ([6]; women [sic])	Cardiovascular Effects [6]	Dose with decreased PLT and reticulocyte count [6]	Dose with erosion/ulcer, inflammation, decreased mucus in stomach, hyperplasia/hyperkeratosis [6]	Dose with extramedullary hematopoiesis decreased in spleen and liver [6]	Dose with increased AST and ALT [6]	Direct inhibition of CYP2A6 (CYP2A6)
COCCCCCCCCCN1C[C@H](O)[C@@H](O)[C@H](O)[C@H]1CO [UV-4B, N-(9’-methoxynonyl)-1-deoxynojirimycin hydrochloride]	32800	67	163000	not found to be mutagenic or clastogenic	966	P(F)	−	P(F)	swollen paws/legs and perioral appearance	< 10	≤ 120	dose-limiting erosions/ulcerations in the stomach	≥ 10 mg/kg/dose, TID	< 60 mg/kg/dose, TID	none observed	≥ 10 mg/kg/dose, TID	≥ 25 mg/kg/dose, TID	60 mg/kg/dose, TID	≥ 10 mg/kg/dose, TID	
COCCCCCCCCCN1C[C@H](O)[C@@H](O)[C@H](O)[C@H]1CO [UV-4, N-(9’-methoxynonyl)-1-deoxynojirimycin]																				No clinically relevant direct inhibition
